Data on 2 compounds can be found in US11407689B2, “Black urea enhanced efficiency controllable release fertilizer compositions” (priority 2018, dated 2022).

Assay [1] has as its system rice. The assay is described as follows: Greenhouse Rice Test (rice grown in 5-gallon buckets, chlorophyll by SPAD 501 meter and rough rice yield). It is filed as in vivo. To be noted: for Average of Chlorophyll Measurements: relative chlorophyll in leaves, SPAD 501 meter. The protocol: This test was conducted to compare the use of Chip Urea and Black Chip Urea to the use of ordinary granular urea for growing rice. Chip Urea, Black Chip Urea, and plain urea fertilizers were tested at Applied Chemical Technology to fertilize rice grown in 5-gallon buckets in a greenhouse. The rice was fertilized following practices used to grow rice commercially in Arkansas. These practices include fertilizing with starter fertilizers and then dry seeding the rice. Nitrogen is then applied at flooding and again when the plants enter the reproductive phase. The fertilizer is flooded into the soil when the rice plants reach the 4-leaf stage by applying the granular fertilizer to the surface and then the applying the floodwater.
The rice for the tests was grown in a climate controlled greenhouse. […] Each fertilizer was tested with five replicates placed randomly on the table. The codes for labeling the tests are given in Example 5. The bucket placement for the tests is shown in Example 6.
Top soil was purchased from Shoals Dirt near Florence, Ala. This soil was mixed and sieved using a 3 MG screen. Soil samples were taken and sent for testing to the University of Arkansas. Each five gallon bucket was filled with 39 pounds of soil and placed on the greenhouse table with no space between the buckets.
Based on the soil test results, each bucket received pre-fertilizer that included urea, triple super phosphate (TSP), potassium chloride, Epsom salts (magnesium sulfate heptahydrate), and zinc sulfate.
The TSP fertilizer was applied first. This was done by weighing out 3.58 g of TSP for each bucket and then mixing the TSP thoroughly into the top 3-4 inches of soil.
Next, the remaining starter fertilizer was applied to each bucket by making a solution of the urea, potassium chloride, zinc sulfate, and Epson salts according to the values presented in Table A of Example 5. This solution was made so that the amount of the solution needed to supply the correct amount of each nutrient to each bucket was found in 200 mL of the solution. The 200 mL of solution was then evenly poured over the surface of the soil in each bucket.
The pre-fertilizer was applied. The rice was then planted by placing 10-15 seeds on the surface of the soil and using a pencil to push the rice seed ¾ inch beneath the soil surface. The hole was filled with sand. After planting, the soil moisture was monitored. If the buckets needed to be watered, then all of the buckets are watered with the same amount of water by volume. For all of the watering throughout the tests, rain water was used. […]
The fertilizers used were products made at ACT in the pilot plant tests. […] The amounts of each fertilizer were based on the nitrogen measured in the fertilizer by LECO so that every bucket received the same amount of nitrogen. […]

Assay [2] concerns arginine production in plants. To be noted: cited from earlier work.

Molecules are shown by their SMILES.

For the compound `NC(N)=O` [Urea, urea], the “Average of Chlorophyll Measurements” value was determined as 46.8 in assay [1] (July 19, 30 readings per bucket, five replicates) and 36.4 in assay [1] (September 21 (Friday before harvest)). Further, in assay [1] (average yield per bucket versus plain urea), the “% Increase in Yield” value worked out at 0.0%. Also, the “Average Rough Rice Yield per Bucket, Average Dry Weight at Harvest” value in assay [1] (panicles dried at 50° C. for two days, same weight of N per bucket) came to 64.42 g.
Take `N#CN` [acid cyanamide ion]: the “Effectiveness in stimulating arginine production relative to urea” value in assay [2] is 20 times.
